How the values were obtained:
[1] = tested on: acute myeloid leukemia (AML) cells; details: AML cells in vitro; cited from earlier work
DIO mice = assay: Indirect calorimetry of DIO mice after oral BI-7273; type: in vivo, mouse
Protocol: Indirect calorimetry was performed on a Columbus Instruments CLAMS system equipped with 8 metabolic cages. Oxygen consumption (VO2; ml/min) and carbon dioxide production (VCO2; ml/min) were measured at 22° C. with 12-hr:12-hr dark:light cycles. Total energy expenditure was estimated using the equation published before […]). Data were normalized to the body weight of each animal. Physical activity is measured by counting infrared beam breaking events.
Next, whether oral administration of BI-7273 is sufficient to increase the whole-body energy expenditure was investigated. DIO models were gavaged with BI-7273 or control 0.5% Natrosol for 14 days as described above and later housed individually in metabolic cages for 10 days. […] HFD-fed control DIO models had very low respiratory exchange ratios (RER; ˜0.6 in light cycles and 0.72 in dark cycles), which is consistent with their high lipid utilization and insulin resistance (IR) states.

[2] = tested on: primary white adipose progenitor cells; assay: RT-qPCR of markers after treating proliferative primary white adipose progenitor cells, then basal differentiation
Protocol: Tissue suspension was sequentially filtered through 100 and 70 μm cell strainers and centrifuged at 800×g for 5 min to pellet SVF cells.
The cell pellet was resuspended in a growth medium (DMEM high glucose containing 20% FBS and 1% penicillin/streptomycin), plated on collagen-coated cell culture plates, and cultured at 37° C. with 5% CO2. To expand adipose progenitor cells, proliferative adipose progenitor cells were passaged for two times when the confluence reaches 70%.
To differentiate into adipocytes, white adipose progenitor cells were cultured in growth media to reach 100% confluence for 1 day. […] After 2-day induction, the media was changed to basal differentiation medium (DMEM high glucose containing 10% FBS, 850 nM insulin, 1% penicillin/streptomycin) and further incubated for 4-5 days. To differentiate beige adipocytes, fully confluent white adipose progenitor cells were incubated with the above induction medium supplemented with 2 mM rosiglitazone and 1 nM T3 for 2 days and further differentiated in the basal differentiation medium supplemented with 1 mM rosiglitazone and 1 nM T3 for 4-5 days.

[3] = tested on: differentiated white adipocytes; assay: RT-qPCR of markers after treating differentiated white adipocytes; type: cell-based, mouse; details: differentiated white adipocytes treated for 48 hours
Protocol: To differentiate into adipocytes, white adipose progenitor cells were cultured in growth media to reach 100% confluence for 1 day. The growth media was changed into basal induction medium (DMEM high glucose containing 10% FBS, 0.5 mM isobutylmethylxanthine, […] indomethacin, 2 μg/mL dexamethasone, 850 nM insulin, 1% penicillin/streptomycin). After 2-day induction, the media was changed to basal differentiation medium (DMEM high glucose containing 10% FBS, 850 nM insulin, 1% penicillin/streptomycin) and further incubated for 4-5 days. To differentiate beige adipocytes, fully confluent white adipose progenitor cells were incubated with the above induction medium supplemented with […] rosiglitazone and 1 nM T3 for 2 days and further differentiated in the basal differentiation medium supplemented with […] rosiglitazone and 1 nM T3 for 4-5 days.
(§1) Total RNA was isolated from tissue or cell culture using TRIzol. Total RNA (500 ng) from tissues or cell culture was used in 25 μL reverse transcription reactions (Maxima; Life technologies) and diluted into 250 μL. Diluted cDNA (2 μL) was used in quantitative PCR reactions (SsoAdvanced™ Universal SYBR Green mix; Bio-Rad) on a BioRad CFX384™ Real-Time PCR Detection System. Cq-values were determined and expression values were calculated by BioRad CFX Manager™ Software. Relative mRNA expression values were normalized to inner reference genes Rps18 and Tbp of each biological sample. For mitochondrial copy number qPCR, mitochondrial Cox2 gene was amplified and normalized to genomic β-globin gene.
In the above lentivirus-based primary/secondary screenings, sgRNA-mediated genome editing and consequent gene KO could occur either in proliferative adipose progenitor cells or fully-differentiated adipocytes. As such, Brd9 may function as a beige lineage repressor by either repressing the beige adipocyte lineage differentiation or the white-to-beige adipocyte conversion. To distinguish the above possibilities, white adipocytes were differentiated from white adipose progenitor cells under the basal differentiation condition and the differentiated white adipocytes were treated with BI-7273 for 48 hours. […] Therefore, BI-7273 likely induces the beige lineage determination and differentiation of white adipose progenitor cells by inhibiting BRD9.

[4] = tested on: iWAT and eWAT of diet-induced obesity (DIO) mice; assay: Oral BI-7273 in DIO mice: WAT beiging, H/E, UCP1 IHC, RT-qPCR, mitochondrial copy number; type: in vivo, mouse; details: for mRNA levels of Ucp1, increase: vs control mice
Protocol: All animal studies were approved by the University of Georgia Institutional Animal Care and Use Committee (IACUC) and performed strictly following the guidelines Animals were housed in a temperature-controlled (22° C.) environment with 12:12-hrs light:dark cycle and allowed food and water […]. All mouse strains were purchased from the Jackson Laboratory: C57BL/6J: #000664; Ucp1-Cre: #024670; ROSA-INTACT: #021039. To generate diet-induced obesity and type 2 diabetes models, 8-week old C57BL/6J mice (both males and females) were fed with a high-fat diet (60% fat, Research Diet, catelog #D12492) for […]. To perform gavage feeding, animals were immobilized by hands and a gavage solution (0.5% Natrosol or 0.5% Natrosol containing BI-7273, […]) was administered through a 1 mL syringe equipped with a disposable gavage needle.
For histology, iWAT was excised from mice and fixed with 10% formalin, dehydrated and embedded in paraffin. The sliced tissue (5 μm) was stained with hematoxylin and eosin Y (Sigma Aldrich). Cell size was quantified by NIH ImageJ (ver 1.47t). Alternative sections were used for immunohistochemistry detection of UCP1 and H/E staining. Paraffin sections were antigen unmasked with Tris-EDTA buffer (10 mM Tris Base, 1 mM EDTA, 0.05% Tween 20, pH 9.0) in 93° C. for 15 min. Sections were blocked with blocking solution (10% normal goat serum and 1% BSA in PBS) for 1 hr at room temperature and incubated with the primary antibody (anti-UCP1, 1:200 diluted in blocking solution) overnight at 4° C. The endogenous peroxidase was quenched with 3% hydrogen peroxide. Sections were incubated with the secondary antibody for 1 hr at room temperature. Slides were developed with DAB (VectorLab) for 5 min followed with hemotoxylin conterstaining for 1 min. Color images were captured on a Leica DM4000B microscope equipped with a DFC450c camera.
as §1
[…]. The efficacy of BI-7273 in inducing beige adipocyte formation in vivo was tested within diet-induced obesity (DIO) and type 2 diabetes mouse models. To generate DIO models, adult C57BL/6 mice (8-week age, both males and females) were fed with a high-fat diet (HFD; 60% calories from fat) for 12 weeks. To administer BI-7273, BI-7273 mixed in 0.5% Natrosol (100 mg/kg/day, 200 uL) was gavaged for 14 days. For the control mice, 0.5% Natrosol in the same volume was gavaged during the same period. The high-fat diet was changed to the normal chow during gavaging to maximize the uptake of BI-7273. DIO models of control and BI-7273 treatment groups were euthanized after 14-day of gavaging and adipose tissues (iWAT and eWAT) were subjected to H/E staining and UCP1 immunohistochemistry (IHC) to identify beige adipocytes. […].

[5] = light and dark cycles, after 14-day gavage
[6] = 10 μM for 48 hours in progenitor stage, then basal differentiation, vs 0.1% DMSO
[7] = eWAT, 100 mg/kg/day gavage for 14 days
[8] = iWAT, 100 mg/kg/day gavage for 14 days

COc1cc(-c2cn(C)c(=O)c3cnccc23)cc(OC)c1CN(C)C [BI-7273, 4-[4-[(dimethylamino)methyl]-3,5-dimethoxyphenyl]-2-methyl-2,7-naphthyridin-1-one]
MYC expression [1]: suppress | rapid cell proliferation [1]: suppress | respiratory exchange ratio (RER) (DIO mice; light and dark cycles): markedly increased | oxygen consumption (VO2) (DIO mice; [5]): drastically increased | total energy expenditure (E.E.) (DIO mice; [5]): drastically increased | physical activity (DIO mice; vs control, light or dark cycles): comparable | adipocyte markers (Pparg2, Leptin, Adiponectin, Fabp4) [2, 6]: not affected | mRNA levels of beige lineage markers (Pgc1α, Ucp1, Cedia, Dio2, Elovl3) [2, 6]: drastically increased | mRNA levels of mitochondrial markers (Ndufb2, Sdha, Uqcrc2, Cox8b, Atp5a1) [2, 6]: increased | Pgc1β mRNA level ([2]; proliferative white adipose progenitor cells, vs vehicle): increased | Ucp1 mRNA increase [3]: 1.6 fold | adipogenic markers (Pparg2, Leptin, Adiponectin, Fabp4) [3]: not affected | mitochondrial markers (Ndufb2, Sdha, Uqcrc2, Cox8b, Atp5a1) increase [3]: 1.7-2.0 fold | other beige lineage markers (Pgc1α, Cedia, Dio2, Elovl3) [3]: did not raise | mRNA levels of Pgc1β, increase [4, 7]: 4.9 fold | mRNA levels of Ucp1, increase [4, 7]: 6 fold | Pgc1β expression ([4]; iBAT, limb muscles (TA, EDL), and liver): increased | other beige adipocyte markers (Cedia, Dio2, Elovl3, Cox8b) ([4]; iWAT and eWAT, 100 mg/kg/day gavage for 14 days): increased | overall size of adipocytes ([4]; iWAT and eWAT, 100 mg/kg/day gavage for 14 days, H/E): overtly reduced | multiocular UCP1+pos beige adipocytes ([4]; iWAT and eWAT, 100 mg/kg/day gavage for 14 days, UCP1 IHC): induced the formation | Pgc1α mRNA levels ([4]; iWAT or eWAT, 100 mg/kg/day gavage for 14 days): not affected | mitochondrial genome copy number, higher than control DIO mice ([4]; iWAT, eWAT, iBAT, limb muscles, liver): 2.5-8.5 folds | mRNA levels of Pgc1β, increase [4, 8]: 3.8 fold | mRNA levels of Ucp1, increase [4, 8]: 22 fold
